For 28 molecules, Papp A→B, Papp B→A and IC50 results are on record in patent US9073954B2, “5-substituted benzimidazolium compounds” (Boehringer Ingelheim International GmbH, priority 2013, dated 2015).

Where two headings read alike, the source gives them in different places.

The nature of series [1]: Permeability in CALU-3 cells. The format is in vitro ADME. The settings on record: human, CALU-3 monolayers, 10 μM compound, pH 7.4, 37° C.; for Papp A→B at 90 min, 10 μM: apical-to-basal; for Papp B→A at 90 min, 10 μM: basal-to-apical. As to the method: Permeability in CALU-3 Cells:
Permeability measurements across polarized, confluent CALU-3 cell monolayers grown on permeable filter supports are used to provide information on the potential of a compound to pass the lung epithelium. Apparent permeability coefficients (Papp) of the compounds across the CALU-3 cell monolayers are measured (pH 7.4, 37° C.) in apical-to-basal (AB) and basal-toapical (BA) transport direction.
CALU-3 cells (1-2×10^5 cells/1 cm^2 area) are seeded on filter inserts (Costar transwell polycarbonate filters, 0.4 μm pore size) and cultured (for 10-12 days DMEM) until tight monolayers are formed. Compounds of interest are dissolved in appropriate solvent (DMSO, 10 mM stock solution). Stock solutions are diluted with HTP-4 buffer (128.13 mM NaCl, 5.36 mM KC, 1 mM MgSO4, 1.8 mM CaCl2, 4.17 mM NaHCO3, 1.19 mM Na2HPO4×7H2O, 0.41 mM NaH2PO4xH2O, 15 mM HEPES, 20 mM glucose, 0.25% BSA, pH 7.4) to prepare the transport solutions (10 μM compound, final DMSO<=0.5%). The transport solution (TL) is applied to the apical or basolateral donor side for measuring A-B or B-A permeability (3 filter replicates), respectively. The receiver side contains the same buffer as the donor side. After 30 min of accommodation, samples are collected at the start t0=0 min and at the end of the experiment tn=90 min from the donor and at 0, 30, 60, and 90 min also from the receiver chamber. Volume removed is replenished by HTP-4 buffer. The compound concentration in the samples is measured by HPLC-MS/MS or scintillation counting. The permeability coefficient (Papp) and efflux ratio are calculated according to: Papp [cm/s]=(concentration receiver [nM]*volume receiver [mL]/time interval [sec])*(1/filter area)*(1/donor concentration [nM])
With example compounds given above, the following permeability values were determined in the CALU-3 cells assay: […]

Series [2] concerns the target T1, ENaC (Epithelial Sodium Channel) (Mus musculus, UniProt Q61180+Q9WU38+Q9WU39).
T1 construct: Mouse kidney M-1 cells were cultivated in DMEM; endogenous in cells; host or cells: mouse kidney M-1 cells
T1 sequence (Q61180 1-699): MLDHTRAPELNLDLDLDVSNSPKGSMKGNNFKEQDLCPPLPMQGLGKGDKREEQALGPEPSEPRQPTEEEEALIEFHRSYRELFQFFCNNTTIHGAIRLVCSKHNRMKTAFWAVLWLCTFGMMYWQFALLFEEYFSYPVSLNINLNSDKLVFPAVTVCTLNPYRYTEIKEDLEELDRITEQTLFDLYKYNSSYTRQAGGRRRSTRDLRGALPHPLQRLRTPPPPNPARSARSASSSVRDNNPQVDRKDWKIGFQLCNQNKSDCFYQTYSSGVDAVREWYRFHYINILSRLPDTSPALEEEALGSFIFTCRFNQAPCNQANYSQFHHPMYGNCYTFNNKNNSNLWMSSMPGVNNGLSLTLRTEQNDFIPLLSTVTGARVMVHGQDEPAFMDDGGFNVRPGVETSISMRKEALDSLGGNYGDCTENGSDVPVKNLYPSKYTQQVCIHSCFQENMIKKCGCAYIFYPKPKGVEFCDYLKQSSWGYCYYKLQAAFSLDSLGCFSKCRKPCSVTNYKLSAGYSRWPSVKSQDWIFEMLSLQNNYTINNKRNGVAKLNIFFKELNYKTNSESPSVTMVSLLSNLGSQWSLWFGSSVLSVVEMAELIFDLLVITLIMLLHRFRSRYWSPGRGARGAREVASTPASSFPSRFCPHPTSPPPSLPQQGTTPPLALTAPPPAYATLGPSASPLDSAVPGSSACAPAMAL
T1 sequence (Q9WU38 1-638): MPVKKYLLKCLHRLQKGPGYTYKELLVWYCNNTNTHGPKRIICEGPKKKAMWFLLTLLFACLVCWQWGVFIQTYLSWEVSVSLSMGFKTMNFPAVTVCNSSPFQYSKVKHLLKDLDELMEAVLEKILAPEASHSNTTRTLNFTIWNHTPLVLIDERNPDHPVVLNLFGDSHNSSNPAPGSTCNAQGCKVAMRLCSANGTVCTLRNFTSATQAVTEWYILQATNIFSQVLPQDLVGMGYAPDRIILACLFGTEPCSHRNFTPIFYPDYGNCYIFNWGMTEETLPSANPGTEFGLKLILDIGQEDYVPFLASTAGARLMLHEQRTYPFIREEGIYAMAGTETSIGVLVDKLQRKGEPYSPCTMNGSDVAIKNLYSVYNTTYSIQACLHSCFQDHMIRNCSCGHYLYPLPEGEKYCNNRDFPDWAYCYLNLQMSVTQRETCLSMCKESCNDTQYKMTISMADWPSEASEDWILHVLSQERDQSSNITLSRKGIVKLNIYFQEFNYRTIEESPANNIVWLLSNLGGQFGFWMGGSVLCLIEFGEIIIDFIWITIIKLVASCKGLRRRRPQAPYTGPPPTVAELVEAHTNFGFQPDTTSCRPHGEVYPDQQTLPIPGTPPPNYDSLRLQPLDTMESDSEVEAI
T1 sequence (Q9WU39 1-655): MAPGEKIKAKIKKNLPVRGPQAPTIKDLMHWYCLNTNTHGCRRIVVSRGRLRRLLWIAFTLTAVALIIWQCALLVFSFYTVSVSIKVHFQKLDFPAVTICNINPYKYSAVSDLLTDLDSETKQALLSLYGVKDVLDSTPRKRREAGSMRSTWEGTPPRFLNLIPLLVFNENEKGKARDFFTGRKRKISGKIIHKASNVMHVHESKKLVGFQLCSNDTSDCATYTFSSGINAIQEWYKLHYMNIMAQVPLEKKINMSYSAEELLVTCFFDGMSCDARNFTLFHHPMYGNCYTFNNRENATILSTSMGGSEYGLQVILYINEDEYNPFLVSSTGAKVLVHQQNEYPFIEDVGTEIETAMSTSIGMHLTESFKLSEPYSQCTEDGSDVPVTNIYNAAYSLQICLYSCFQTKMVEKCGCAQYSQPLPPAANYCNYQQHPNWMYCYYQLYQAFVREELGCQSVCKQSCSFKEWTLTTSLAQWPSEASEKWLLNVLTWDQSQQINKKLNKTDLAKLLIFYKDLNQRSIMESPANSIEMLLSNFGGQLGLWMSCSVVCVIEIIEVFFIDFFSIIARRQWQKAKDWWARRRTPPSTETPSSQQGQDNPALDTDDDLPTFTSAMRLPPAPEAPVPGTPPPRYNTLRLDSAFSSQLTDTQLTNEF
Nature of the series: Ussing chamber: short circuit current in M-1 cells. It is filed as cell-based. As to the method:
Mouse kidney M-1 cells were cultivated in DMEM containing 5% FCS and 5 μM dexamethasone for 10 to 12 days on polyester transwell filters. Filters were inserted into a teflon-coated well-plate which fit into the ussing chamber system. Prior to measurement the medium of M-1 cells was replaced with Caco-2 transport buffer (Invitrogen, Germany). During measurements, the Ussing chamber temperature was kept at 37° C. Short circuit currents (I_sc) were measured in the voltage-clamp mode with the software package Lab View for data acquisition and analysis. The transepithelial electrical resistance (TEER) was determined by the application of voltage steps of ±5 mV every 5 sec. Compounds were administered at a final concentration of 3 μM or at increasing concentrations (1-3-10 μM) to the apical solution. At the end of each experiment the amiloride sensitive I_SC was measured by adding 3 μM amiloride to the apical compartment. Results are expressed as inhibition in percent of the amiloride effect or as IC50.
With the example compounds given above, the following IC50 values were determined in the Ussing Chamber assay: […]

Setting [3] is: Ussing chamber, mouse kidney M-1 cells, amiloride sensitive I_SC, apical application, 37° C., read-out: IC50.

In general, Papp A→B refers to the apparent permeability from the apical to the basolateral side of a cell layer. In general, Papp B→A refers to the apparent permeability from the basolateral to the apical side of a cell layer. As usually defined, the IC50 is the concentration that inhibits the measured activity by half. In series [1], `CCn1c(CNC(=O)c2nc(Cl)c(N)nc2N)[n+](C[C@H](C)O)c2cc(OCCN)ccc21` [Example 1.7] returned an apparent permeability from apical to basolateral (Papp A→B) at 90 min, 10 μM of 0.03 ×10⁻⁶ cm/s and a Papp B→A at 90 min, 10 μM of 0.05 ×10⁻⁶ cm/s. Also, the IC50 in series [2] (setting [3]) worked out at 2 nM.

In series [1], `CCn1c(CNC(=O)c2nc(Cl)c(N)nc2N)[n+](CC)c2cc(F)c(C(=O)N3CCOCC3)cc21` [Example 3.12] came in with a Papp A→B at 90 min, 10 μM of 0.1 ×10⁻⁶ cm/s and a Papp B→A at 90 min, 10 μM of 0.2 ×10⁻⁶ cm/s. In series [2] (setting [3]), the IC50 is 0.4 nM.

Consider `CCn1c(CNC(=O)c2nc(Cl)c(N)nc2N)[n+](CC)c2ccc(OCCNC(=O)OC(C)(C)C)cc21` [Example 1.4], for which the IC50 in series [2] (setting [3]) worked out at 0.4 nM.

As for `CCn1c(CNC(=O)c2nc(Cl)c(N)nc2N)[n+](CC)c2ccc(C[N+](C)(C)C)cc21` [Example 8.3], the IC50 in series [2] (setting [3]) was determined as 2 nM. The same measure, in the same setting: under `CCNC(=O)COc1ccc2c(c1)n(C(C)C)c(CNC(=O)c1nc(Cl)c(N)nc1N)[n+]2CC` [Example 3.4] stands 1 nM. As for `CCn1c(CNC(=O)c2nc(Cl)c(N)nc2N)[n+](CC)c2ccc(O[C@@H]3CO[C@H]4[C@@H]3OC[C@H]4O)cc21` [Example 3.15], the IC50 in series [2] (setting [3]) is 3 nM. Still for that read-out and setting: the same measure for `CCn1c(CNC(=O)c2nc(Cl)c(N)nc2N)[n+](CC)c2ccc(OCCNC(=N)N)cc21` [Example 10.1]: 0.3 nM. `CCOP(=O)([O-])CCCOc1ccc2c(c1)n(CC)c(CNC(=O)c1nc(Br)c(N)nc1N)[n+]2CCOC` [Example 2.1]: in series [1], the Papp A→B at 90 min, 10 μM amounted to 0.2 ×10⁻⁶ cm/s and the Papp B→A at 90 min, 10 μM came out at 0.08 ×10⁻⁶ cm/s. The IC50 in series [2] (setting [3]) was 16 nM.

Consider `CCn1c(CNC(=O)c2nc(Cl)c(N)nc2N)[n+](CC)c2ccc(CNC(=O)OCC3c4ccccc4-c4ccccc43)cc21` [Example 1.2], for which, in series [2] (setting [3]), the IC50 worked out at 9 nM. Same read-out and setting: the same measure for `CCn1c(CNC(=O)c2nc(Cl)c(N)nc2N)[n+](CC)c2ccc(CNC(=O)COc3cc(C(=O)N[C@H]4CC[C@H](N(C)C)CC4)cc(C(=O)N[C@H]4CC[C@H](N(C)C)CC4)c3)cc21` [Example 11.1]: 2 nM. In the case of `CCn1c(CNC(=O)c2nc(Cl)c(N)nc2N)[n+](CC)c2cc(Cl)c(OCCOCCOC)cc21` [Example 3.2], the IC50 in series [2] (setting [3]) was determined as 0.5 nM. For the molecule `CCNC(=O)c1cc2c(cc1OCC(=O)N1CCNCC1)n(CC)c(CNC(=O)c1nc(Cl)c(N)nc1N)[n+]2CC` [Example 6.3], in series [2] (setting [3]), the IC50 came to 4 nM. On the same count and under the same terms, under `CCn1c(CNC(=O)c2nc(Cl)c(N)nc2N)[n+](CC)c2cc(Cl)c(N(CCO)CCO)cc21` [Example 1.3] stands 2 nM; under `CCOP(=O)(CCCOc1ccc2c(c1)n(CC)c(CNC(=O)c1nc(Cl)c(N)nc1N)[n+]2CC)OCC` [Example 3.1], 3 nM.

`CCn1c(CNC(=O)c2nc(Cl)c(N)nc2N)[n+](CC)c2ccc(OCCNCC(=O)[O-])cc21` [Example 5.1]: the IC50 in series [2] (setting [3]) was found to be 5 nM. Consider `CCn1c(CNC(=O)c2nc(Cl)c(N)nc2N)[n+](CC)c2ccc(OCCN)cc21` [Example 6.2], for which, in series [2] (setting [3]), the IC50 amounted to 1 nM. On the same count and under the same terms, under `CCn1c(CNC(=O)c2nc(Cl)c(N)nc2N)[n+](CC)c2ccc(OCCCP(=O)([O-])O)cc21` [Example 4.1] stands 11 nM. As to `CC[n+]1c(CNC(=O)c2nc(Cl)c(N)nc2N)n(CCCCCO)c2cc(O)ccc21` [Example 3.7], in series [1], the Papp A→B at 90 min, 10 μM turned out to be 0.7 ×10⁻⁶ cm/s and the Papp B→A at 90 min, 10 μM was 0.3 ×10⁻⁶ cm/s. Regarding `CCn1c(CNC(=O)c2nc(Cl)c(N)nc2N)[n+](CC)c2ccc(OCCNC(=O)C[N+](C)(C)C)cc21` [Example 8.1], in series [2] (setting [3]), the IC50 was determined as 0.4 nM. Still for that read-out and setting: under `CCn1c(CNC(=O)c2nc(Cl)c(N)nc2N)[n+](C)c2ccc(O)cc21` [Example 3.9] stands 1 nM; under `CCn1c(CNC(=O)c2nc(Cl)c(N)nc2N)[n+](CC)c2ccc(CN)cc21` [Example 6.1], 1 nM. In the case of `CCNC(=O)[C@H](C)Oc1ccc2c(c1)n(CC)c(CNC(=O)c1nc(Cl)c(N)nc1N)[n+]2CC` [Example 3.6], the concentration for half-maximal inhibition (IC50) in series [2] (setting [3]) amounted to 1 nM. Same read-out and setting: the same measure for `CCn1c(CNC(=O)c2nc(Cl)c(N)nc2N)[n+](CC)c2ccc(OCCNCC(=O)OC)cc21` [Example 9.1]: 2 nM; for `CCn1c(CNC(=O)c2nc(Cl)c(N)nc2N)[n+](CC)c2ccc(O)cc21` [Example 3.10]: 0.2 nM.

For `CCn1c(CNC(=O)c2nc(Cl)c(N)nc2N)[n+](CC)c2ccc(O[C@H](C)C(=O)N3CCNC(=O)C3)cc21` [Example 3.3], in series [2] (setting [3]), the IC50 stood at 1 nM. Regarding `CCNC(=O)COc1ccc2c(c1)n(CC)c(CNC(=O)c1nc(Cl)c(N)nc1N)[n+]2CC` [Example 3.14], the IC50 in series [2] (setting [3]) was found to be 0.3 nM. As for `CCOP(=O)(CCCOc1ccc2c(c1)n(CC)c(CNC(=O)c1nc(Cl)c(N)nc1N)[n+]2CCOC)OCC` [Example 3.13], the half-maximal inhibitory concentration (IC50) in series [2] was 2 nM. Regarding `CCn1c(CNC(=O)c2nc(Cl)c(N)nc2N)[n+](CC)c2ccc(CNC(=O)C[N+](C)(C)C)cc21` [Example 8.2], the IC50 in series [2] (setting [3]) came out at 5 nM.
